Measured values reported in patent publication US20220401483A1, “COMBINATION OF A T CELL THERAPY AND (S)-3-[4-(4-MORPHOLIN-4-YLMETHYL-BENZYLOXY)-L-OXO-L,3-DIHYDRO-ISOINDOL-2-YL]-PIPERIDINE-2,6-DIONE” (Juno Therapeutics, Inc., priority 2019, published 2022).

How the values were obtained:
Aiolos = assay: Intracellular Aiolos expression in stimulated anti-CD19 CAR-expressing T cells (flow cytometry MFI); assay type: cell-based, human
Procedure: T cell compositions containing anti-CD19 CAR-expressing T cells were generated from leukapheresis samples from three healthy human adult donors by a process including immunoaffinity-based selection of T cells (including CD4+ and CD8+ cells) from the samples, resulting in two compositions, enriched for CD8+ and CD4+ cells, respectively. The cells were incubated in the presence of (S)-3-[4-(4-morpholin-4-ylmethyl-benzyloxy)-1-oxo-1,3-dihydro-isoindol-2-yl]-piperidine-2,6-dione (Compound A) or 3-(5-amino-2-methyl-4-oxo-4H-quinazolin-3-yl)-piperidine-2,6-dione (Compound B), and expression of the transcription factors Ikaros and Aiolos was assessed. Cells of the enriched CD4+ and CD8+ compositions were separately activated with anti-CD3/anti-CD28 beads and subjected to lentiviral transduction with a vector encoding an anti-CD19 CAR. The anti-CD19 CAR contained an anti-CD19 scFv derived from a murine antibody (variable region derived from FMC63), an immunoglobulin-derived spacer, a transmembrane domain derived from CD28, a costimulatory region derived from 4-1BB, and a CD3-zeta intracellular signaling domain. The expression construct in the viral vector further contained sequences encoding a truncated receptor, which served as a surrogate marker for CAR expression, which was separated from the CAR sequence by a T2A ribosome skip sequence. Transduced populations then were separately incubated in the presence of stimulating reagents for cell expansion. Expanded CD8+ and CD4+ cells were formulated and cryopreserved separately and stored. The cryopreserved CD4+ and CD8+ anti-CD19 CAR-expressing cells from each donor were thawed, and combined at approximately a 1:1 CAR+CD4+:CD8+ ratio prior to use. Approximately 2.5×10^5 cells of the generated CAR+ T cell composition were stimulated overnight with 1 μg/ml of a CAR-specific anti-idiotypic antibody in the presence of 3-(5-amino-2-methyl-4-oxo-4H-quinazolin-3-yl)-piperidine-2,6-dione (Compound B) or (S)-3-[4-(4-morpholin-4-ylmethyl-benzyloxy)-1-oxo-1,3-dihydro-isoindol-2-yl]-piperidine-2,6-dione (Compound A) at concentrations ranging from 10 to 10000 nM or a vehicle control overnight at 37° C., 5% C02. Following overnight incubation, anti-CD19 CAR-expressing T cells were stained with antibodies and analyzed by flow cytometry to assess intracellular levels of Ikaros and Aiolos in CD4+ CAR+ or CD8+ CAR+ cells, as measured by median fluorescence intensity (MFI). Median fluorescence intensity (MFI) values for Ikaros and Aiolos were normalized and calculated as a percentage relative to vehicle control. […] The EC50 for reducing Aiolos and Ikaros expression was calculated as determined from the concentration of the inhibitor that reduced Aiolos or Ikaros MFI to 50% of its maximal MFI in the absence of the inhibitor.

Cmax in healthy subjects = settings: human, in vivo, doses of 0.3 mg and 1.0 mg
[1] = system: Raji or Granta-519 lymphoma cells; assay: Cytolytic assay of CAR T cells treated 3 days, Raji or Granta-519 target cells; assay type: cell-based, human; settings: 1 nM, 10 nM or 100 nM, 3 days treatment
Procedure: After 3 days of treatment with Compound A, anti-CD19 CAR T cells were co-cultured with Raji or Granta-519 lymphoma cells using a cytolytic assay. To assess cytolytic activity, the target cells were labeled with NucLight Red (NLR) to permit tracking by fluorescent microscopy. Killing activity was assessed by measuring the loss of viable target cells over 200 hours, as determined by loss of fluorescent signal over time by kinetic fluorescence microscopy (using the INCUCYTE® Live Cell Analysis System, Essen Bioscience). Tumor cell numbers were normalized to time zero and measured over time (mean±SEM).
FIG. 7B depicts the tumor cell numbers of anti-CD19 CAR T cells treated with 1 nM, 10 nM, or 100 nM Compound A as compared with vehicle control (no Compound A) and tumor only.

[2] = system: Granta-519 tumor spheroids; assay: Spheroid tumor growth assay, rescue treatment of chronically stimulated CAR T cells; assay type: cell-based, human
Procedure: Anti-CD19 CAR-expressing T cells from three donors, produced as described in Example 1, were stimulated under conditions to induce chronic stimulation (to produce hypofunctional, exhausted T cells) and then were subsequently treated (rescue) with (S)-3-[4-(4-morpholin-4-ylmethyl-benzyloxy)-1-oxo-1,3-dihydro-isoindol-2-yl]-piperidine-2,6-dione (Compound A), or a vehicle control. Long-term, chronic stimulation was carried out by stimulation of CAR T cells with 30 μg/mL plate-bound anti-idiotypic (anti-ID) antibody for 6 days, substantially as described in Example 3 but in the absence of Compound A. After the chronic stimulation, the CAR-T cells were rechallenged with CD19-expressing target cells in the presence of Compound A, and cytolytic activity or cytokine production was assessed.
CAR T cells that had been stimulated for 6 days with anti-ID were co-cultured by incubation with Granta-519 tumor spheroids, in the presence or absence of Compound A (0.001 μM or 0.01 μM). Cells were assessed at various time points for cytolytic function and cytokine function. For comparison, cytolytic activity was also assessed for cells that had been similarly chronically stimulated with anti-ID, followed by co-culture in the presence of 1 μM or 0.1 μM Compound B. Averaged measurement of tumor spheroid size at Day 9 following co-culture with CAR-T cells was assessed. […] The improvement in cytolytic function was greater following rescue treatment with Compound A than Compound B. Cytokines (IFNγ, IL-2 and TNFalpha) were measured from supernatant of the chronically stimulated CAR T cells above that had been co-cultured for 5 days with CD19 tumor spheroids. The log 2 fold change compared to control cells (chronically stimulated cells that had not been treated with immunomodulatory compound) is shown in FIG. 4C.

EC50 (Aiolos; overnight incubation, 1 μg/ml anti-idiotypic antibody, average of donors (range, 95% confidence interval)): 2.5 nM
Cmax (Cmax in healthy subjects): 2.41 to 11.8 nM
Compound: O=C1CC[C@H](N2Cc3c(OCc4ccc(CN5CCOCC5)cc4)cccc3C2=O)C(=O)N1 [Compound A, (S)-3-[4-(4-morpholin-4-ylmethyl-benzyloxy)-1-oxo-1,3-dihydro-isoindol-2-yl]-piperidine-2,6-dione]
intracellular Aiolos expression (Aiolos; 10 to 10000 nM, overnight): concentration dependent decrease
potency relative to Compound B in degradation of Ikaros and Aiolos (Aiolos; CAR-expressing T cells): 10-20 fold
cytolytic activity against target cells [1]: improved
CAR T cell cytolytic function, Granta-519 spheroid growth ([2]; 0.001 μM or 0.01 μM, Day 9): improved
IFNγ in co-culture supernatant ([2]; 5 days co-culture with spheroids): statistically significant increase
improvement in cytolytic function compared with Compound B ([2]; Compound B 1 μM or 0.1 μM): greater
